Test results reported in patent US20240368194A1, “IRAK4 DEGRADATION AGENT, AND PREPARATION METHOD THEREFOR AND USE THEREOF” (SHANGHAI LEADINGTAC PHARMACEUTICAL CO. LTD., priority 2021, published 2024).

Tests used:
IRAK4 kinase = IRAK4 kinase (Homo sapiens (Human), UniProt Q9NWZ3); assay: IRAK4 kinase activity test (KinEASE-STK S1 HTRF kit); format: biochemical; conditions: 2.5 nM IRAK4 kinase, 7 μM ATP, 37° C. 120 min
Procedure: Then 2.5 nM 1RAK4 kinase (Carna), 1 μM biotinylated polypeptide substrate (Cisbio) and 7 μM adenosine triphosphate (Sigma-Aldrich) were sequentially added, and the mixtures were incubated at 37° C. for 120 min. Subsequently, an anti-phosphoserine/threonine antibody (Cisbio) conjugated with a europium element compound and conjugated modified XL665 streptavidin (Cisbio) were added to the reaction systems to stop the reactions. After 1 h of incubation at room temperature, the fluorescence intensity of each well was measured at the excitation wavelength of 337 nm and the emission wavelengths of 620 nm and 665 nm with a microplate reader EnVision (PerkinElmer) in the HTRF mode, and Ratio values were calculated using the formula Ratio=(665 nm/620 nm)×[…]. The inhibition rate of the compound at each concentration was calculated by comparing the fluorescence intensity ratio with that of the control group. Then a non-linear curve fitting of logarithmic concentration-inhibition rate was performed using GraphPad Prism 7, and the IC50 value of the compound was obtained.

[1] = molecular target: IRAK4 protein in THP-1 cells (Homo sapiens (Human), UniProt Q9NWZ3); assay: Degradation of IRAK4 in THP-1 cells, human IRAK4 AlphaLISA assay; format: cell-based; conditions: 24 h incubation
Procedure: THP-1 cells (Stem Cell Bank, Chinese Academy of Sciences) were inoculated onto a 24-well cell culture plate at 0.95 mL/well, with a cell density of 5×10^5 cells/well. The cell plate was incubated overnight in a 37° C., 5% carbon dioxide incubator, and 50 μL of a solution of a compound in dimethyl sulfoxide was added, such that the final concentration of the compound fell within the range of 0.03-3000 nM. After another 24 h of incubation, cells were collected into 1.5 mL centrifuge tubes and centrifuged at 1000 rpm at 4° C. for 5 min. The cell pellets were washed twice with 1×DPBS. The resuspended cells were lysed with 200 μL of lysis buffer (Western and IP cell lysis buffer (Beyotime), supplemented with 1 mM phenylmethylsulfonyl fluoride and protease inhibitor cocktail (Beyotime)), left to stand on ice for 30 mini, and then centrifuged at 14,000 g at 4° C. for 10 min. The supernatant samples were assayed by Western Blot for IRAK4 protein levels.
The above cell lysates were also tested for IRAK4 degradation using a human IRAK4 AlphaLISA assay kit (PerkinElmer, AL3117C). The method is specifically as follows: 2-μL test samples of cell lysate supernatant were transferred to a white 384-well plate (PerkinElmer, 6007299), and 4 μL of 5× anti-IRAK4 receptor beads (PerkinElmer, final concentration of 10 μg/mL) was then added. The plate was incubated at 23° C. for 30 min. Then 4 μL of 5× biotin-labeled anti-IRAK4 antibody (PerkinElmer, final concentration of 1 nM) was added, and the plate was incubated at 23° C. for 60 min. Finally, 10 μL of 2′ streptavidin-labeled donor beads (final concentration of 40 μg/mL) was added to each well, and the plate was incubated in the dark at 23° C. for 30 min. After the incubation was complete, AlphaLISA signal values were measured on a microplate reader EnVision (PerkinElmer, 2105) in the AlphaScreen standard mode, and IRAK4 concentrations were calculated from these signal values. Then a non-linear curve fitting of logarithmic concentration-inhibition rate was performed using GraphPad Prism 7, and the DC50 and Dmax values of the compound were obtained.

Sequence of IRAK4 kinase (Q9NWZ3 whole entry): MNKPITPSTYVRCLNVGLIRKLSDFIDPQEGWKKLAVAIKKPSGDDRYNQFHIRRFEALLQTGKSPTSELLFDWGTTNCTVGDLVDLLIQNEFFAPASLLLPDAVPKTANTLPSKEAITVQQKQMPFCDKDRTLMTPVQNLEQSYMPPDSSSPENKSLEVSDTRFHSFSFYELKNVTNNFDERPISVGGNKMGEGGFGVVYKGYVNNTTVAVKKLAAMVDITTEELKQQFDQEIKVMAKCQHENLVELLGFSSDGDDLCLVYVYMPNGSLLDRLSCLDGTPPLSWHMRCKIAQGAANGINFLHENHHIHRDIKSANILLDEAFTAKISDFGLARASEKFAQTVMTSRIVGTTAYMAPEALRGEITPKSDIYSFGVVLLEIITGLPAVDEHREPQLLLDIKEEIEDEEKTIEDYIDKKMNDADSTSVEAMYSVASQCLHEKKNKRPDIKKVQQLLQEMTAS
Sequence of IRAK4 protein in THP-1 cells (Q9NWZ3 whole entry): as above

IC50 (IRAK4 kinase) [nM]	DC50 [1] [nM]	Dmax [1] [%]	Compound	Dmax (%) [1] [%]
67.2	–	–	O=C1CCN(c2cc(C(=O)N3CCN(C[C@H]4CC[C@H](n5cc(NC(=O)c6cnn7ccc(N8C[C@H]9C[C@@H]8CO9)nc67)c(C(F)F)n5)CC4)CC3)ccc2Cl)C(=O)N1 [Example 3, 5-((1R,4R)-2-oxa-5-azabicyclo[2.2.1]heptan-5-yl)-N-(1-((1R,4R)-4-((4-(4-chloro-3-(2,4-dioxotetrahydropyrimidin-1(2H)-yl)benzoyl)piperazin-1-yl)methyl)cyclohexyl)-3-(difluoromethyl)-1H-pyrazol-4-yl)pyrazolo[1,5-a]pyrimidine-3-carboxamide]	–
37	–	–	CN(CC1CCN(C(=O)c2ccc(Cl)c(N3CCC(=O)NC3=O)c2)CC1)C[C@H]1CC[C@H](n2cc(NC(=O)c3cnn4ccc(N5C[C@H]6C[C@@H]5CO6)nc34)c(C(F)F)n2)CC1 [Example 4, 5-((1R,4R)-2-oxa-5-azabicyclo[2.2.1]heptan-5-yl)-N-(1-((1R,4R)-4-((((1-(4-chloro-3-(2,4-dioxotetrahydropyrimidin-1(2H)-yl)benzoyl)piperidin-4-yl)methyl)(methyl)amino)methyl)cyclohexyl)-3-(difluoromethyl)-1H-pyrazol-4-yl)pyrazolo[1,5-a]pyrimidine-3-carboxamide]	–
524	–	–	O=C1CCN(c2cc(C(=O)N3CCC4(CCN(CC5CCN(c6ccc(NC(=O)c7cnn8ccc(N9C[C@H]%10C[C@@H]9CO%10)nc78)c(Cl)c6)CC5)CC4)CC3)ccc2Cl)C(=O)N1 [Example 6, 5-((1R,4R)-2-oxa-5-azabicyclo[2.2.1]heptan-5-yl)-N-(2-chloro-4-(4-((9-(4-chloro-3-(2,4-dioxotetrahydropyrimidin-1(2H)-yl)benzoyl)-3,9-diazaspiro[5.5]undecan-3-yl)methyl)piperidin-1-yl)phenyl)pyrazolo[1,5-a]pyrimidine-3-carboxamide]	–
270	–	–	O=C1CCN(c2cc(C(=O)N3CCC(C#CCN4CCC(n5cc(NC(=O)c6cnn7ccc(N8C[C@H]9C[C@@H]8CO9)nc67)c(C(F)F)n5)CC4)CC3)ccc2Cl)C(=O)N1 [Example 12, 5-((1R,4R)-2-oxa-5-azabicyclo[2.2.1]heptan-5-yl)-N-(1-(1-(3-(1-(4-chloro-3-(2,4-dioxotetrahydropyrimidin-1(2H)-yl)benzoyl)piperidin-4-yl)prop-2-yn-1-yl)piperidin-4-yl)-3-(difluoromethyl)-1H-pyrazol-4-yl)pyrazolo[1,5-a]pyrimidine-3-carboxamide]	–
124	–	–	O=C1CCN(c2cc(C(=O)N3CCC(CCCN4CCC(n5cc(NC(=O)c6cnn7ccc(N8C[C@H]9C[C@@H]8CO9)nc67)c(C(F)F)n5)CC4)CC3)ccc2Cl)C(=O)N1 [Example 14, 5-((1R,4R)-2-oxa-5-azabicyclo[2.2.1]heptan-5-yl)-N-(1-(1-(3-(1-(4-chloro-3-(2,4-dioxotetrahydropyrimidin-1(2H)-yl)benzoyl)piperidin-4-yl)propyl)piperidin-4-yl)-3-(difluoromethyl)-1H-pyrazol-4-yl)pyrazolo[1,5-a]pyrimidine-3-carboxamide]	–
13.5	–	–	O=C1CCN(c2ccc(C(=O)N3CCC4(CCC(CN5CCC(n6cc(NC(=O)c7cnn8ccc(N9CCOCC9)nc78)c(C(F)F)n6)CC5)CC4)CC3)cc2)C(=O)N1 [Example 27, N-(3-(difluoromethyl)-1-(1-((3-(4-(2,4-dioxotetrahydropyrimidin-1(2H)-yl)benzoyl)-3-azaspiro[5.5]undecan-9-yl)methyl)piperidin-4-yl)-1H-pyrazol-4-yl)-5-morpholinopyrazolo[1,5-a]pyrimidine-3-carboxamide]	–
–	5.55	94.4	O=C1CCN(c2cc(C(=O)N3CCC4(CCN(C[C@H]5CC[C@H](n6cc(NC(=O)c7cnn8ccc(N9CC%10(COC%10)C9)nc78)c(C(F)F)n6)CC5)CC4)CC3)ccc2Cl)C(=O)N1 [Example 48, N-(1-((1R,4R)-4-((9-(4-chloro-3-(2,4-dioxotetrahydropyrimidin-1(2H)-yl)benzoyl)-3,9-diazaspiro[5.5]undecan-3-yl)methyl)cyclohexyl)-3-(difluoromethyl)-1H-pyrazol-4-yl)-5-(2-oxa-6-azaspiro[3.3]heptan-6-yl)pyrazolo[1,5-a]pyrimidine-3-carboxamide]	–
27.1	–	–	O=C1CCN(c2cc(N3CCN(CCCCN4CCC(n5cc(NC(=O)c6cnn7ccc(N8C[C@H]9C[C@@H]8CO9)nc67)c(C(F)F)n5)CC4)CC3)ccc2Cl)C(=O)N1 [Example 51, 5-((1R,4R)-2-oxa-5-azabicyclo[2.2.1]heptan-5-yl)-N-(1-(1-(4-(4-(4-chloro-3-(2,4-dioxotetrahydropyrimidin-1(2H)-yl)phenyl)piperazin-1-yl)butyl)piperidin-4-yl)-3-(difluoromethyl)-1H-pyrazol-4-yl)pyrazolo[1,5-a]pyrimidine-3-carboxamide]	–
–	8.13	88.2	CN(CCC1CCN(C(=O)c2ccc(F)c(C3CCC(=O)NC3=O)c2)CC1)C(=O)[C@H]1CC[C@H](n2cc(NC(=O)c3cnn4ccc(N5CCOCC5)nc34)c(C(F)F)n2)CC1 (stereo partly drawn) [Example 54, N-(3-(difluoromethyl)-1-((1R,4R)-4-((2-(1-(3-(2,6-dioxopyridin-3-yl)-4-fluorobenzoyl)piperidin-4-yl)ethyl)(methyl)carbamoyl)cyclohexyl)-1H-pyrazol-4-yl)-5-morpholinopyrazolo[1,5-a]pyrimidine-3-carboxamide]	–
–	7.92	70.8	COc1ccc(C(=O)N2CCC3(CCC(N(C)C[C@H]4CC[C@H](n5cc(NC(=O)c6cnn7ccc(N8CCOCC8)nc67)c(C(F)F)n5)CC4)CC3)CC2)cc1N1CCC(=O)NC1=O [Example 59, N-(3-(difluoromethyl)-1-((1R,4R)-4-(((3-(3-(2,4-dioxotetrahydropyrimidin-1(2H)-yl)-4-methoxybenzoyl)-3-azaspiro[5.5]undecan-9-yl)(methyl)amino)methyl)cyclohexyl)-1H-pyrazol-4-yl)-5-morpholinopyrazolo[1,5-a]pyrimidine-3-carboxamide]	–
28.9	–	–	O=C1CCC(c2cc(C(=O)N3CCN(CCCC(=O)N4CCC(n5cc(NC(=O)c6cnn7ccc(N8CCOCC8)nc67)c(C(F)F)n5)CC4)CC3)ccc2F)C(=O)N1 (stereo not shown) [Example 62, N-(3-(difluoromethyl)-1-(1-(4-(4-(3-(2,6-dioxopiperidin-3-yl)-4-fluorobenzoyl)piperazin-1-yl)butanoyl)piperidin-4-yl)-1H-pyrazol-4-yl)-5-morpholinopyrazolo[1,5-a]pyrimidine-3-carboxamide]	–
–	14.3	87.2	CN(CCC1CCN(C(=O)c2ccc(Cl)c(N3CCC(=O)NC3=O)c2)CC1)C[C@]1(O)CC[C@@H](n2cc(NC(=O)c3cnn4ccc(N5C[C@H]6C[C@@H]5CO6)nc34)c(C(F)F)n2)CC1 [Example 65, 5-((1R,4R)-2-oxa-5-azabicyclo[2.2.1]heptan-5-yl)-N-(1-((1S,4S)-4-(((2-(1-(4-chloro-3-(2,4-dioxotetrahydropyrimidin-1(2H)-yl)benzoyl)piperidin-4-yl)ethyl)(methyl)amino)methyl)-4-hydroxycyclohexyl)-3-(difluoromethyl)-1H-pyrazol-4-yl)pyrazolo[1,5-a]pyrimidine-3-carboxamide]	–

Compound	IC50 (IRAK4 kinase) [nM]	DC50 [1] [nM]	Dmax [1] [%]	Dmax (%) [1] [%]
O=C1CCN(c2cc(C(=O)N3CCC(CCOC[C@H]4CC[C@@H](n5cc(NC(=O)c6cnn7ccc(N8C[C@H]9C[C@@H]8CO9)nc67)c(C(F)F)n5)CC4)CC3)ccc2Cl)C(=O)N1 [Example 9, 5-((1R,4R)-2-oxa-5-azabicyclo[2.2.1]heptan-5-yl)-N-(1-((1R,4R)-4-((2-(1-(4-chloro-3-(2,4-dioxotetrahydropyrimidin-1(2H)-yl)benzoyl)piperidin-4-yl)ethoxy)methyl)cyclohexyl)-3-(difluoromethyl)-1H-pyrazol-4-yl)pyrazolo[1,5-a]pyrimidine-3-carboxamide]	131	129	–	81.0
